# Laboratory results: ChEMBL document CHEMBL4699440, “Comprehensive review on the anti-bacterial activity of 1,2,3-triazole hybrids” (Eur J Med Chem, 2019)
# Columns and labels:
# Klebsiella pneumoniae = assay: Antibacterial activity against Klebsiella pneumoniae ATCC 700603 incubated overnight by broth dilution technique; type: functional, organism-based
# Escherichia coli [1] = assay: Antibacterial activity against Escherichia coli ATCC 25922 incubated overnight by broth dilution technique; type: functional, organism-based
# Enterococcus faecalis [2] = assay: Antibacterial activity against Enterococcus faecalis MTCC 439 incubated overnight by broth dilution technique; type: functional, organism-based
# Streptococcus pneumoniae = assay: Antibacterial activity against Streptococcus pneumoniae MTCC 655 incubated overnight by broth dilution technique; type: functional, organism-based
# Pseudomonas aeruginosa [3] = assay: Antibacterial activity against Pseudomonas aeruginosa MTCC 2453 incubated overnight by broth dilution technique; type: functional, organism-based
# Salmonella enterica = assay: Antibacterial activity against Salmonella enterica MTCC 3224 incubated overnight by broth dilution technique; type: functional, organism-based
# Pseudomonas aeruginosa [4] = assay: Antibacterial activity against Pseudomonas aeruginosa MTCC 424 incubated for 24 hrs by two-fold serial dilution method; type: functional
# Bacillus subtilis [5] = assay: Antibacterial activity against Bacillus subtilis MTCC 441 incubated for 24 hrs by two-fold serial dilution method; type: functional
# Staphylococcus aureus [6] = assay: Antibacterial activity against Staphylococcus aureus MTCC 7443 incubated for 24 hrs by two-fold serial dilution method; type: functional
# Candida albicans [7] = assay: Antifungal activity against Candida albicans MTCC 227 incubated for 2 days by microdilution method; type: functional; conditions: MTCC 227, 48 h, time 2 day
# Aspergillus brasiliensis [8] = assay: Antifungal activity against Aspergillus brasiliensis MTCC 1344 incubated for 7 days by microdilution method; type: functional; conditions: MTCC 1344, 168 h, time 7 day
# Staphylococcus aureus [9] = assay: Antibacterial activity against Staphylococcus aureus RCMB-010010 assessed as diameter of inhibition zone at 5 mg/ml by diffusion technique; type: functional; conditions: read-out: DIZ
# HepG2 = assay: Anticancer activity against human HepG2 cells by MTT assay; type: functional, cell-based
# Escherichia coli [10] = assay: Antibacterial activity against Escherichia coli RCMB-010052 assessed as diameter of inhibition zone at 5 mg/ml by diffusion technique; type: functional; conditions: read-out: DIZ
# Pseudomonas aeruginosa [11] = assay: Antibacterial activity against Pseudomonas aeruginosa RCMB-010043 assessed as diameter of inhibition zone at 5 mg/ml by diffusion technique; type: functional; conditions: read-out: DIZ
# [12] = system: Syncephalastrum racemosum; assay: Antifungal activity against Syncephalastrum racemosum RCMB-05922 assessed as diameter of inhibition zone at 5 mg/ml by diffusion technique; type: functional; conditions: read-out: DIZ
# Geotrichum candidum = assay: Antifungal activity against Geotrichum candidum RCMB-05097 assessed as diameter of inhibition zone at 5 mg/ml by diffusion technique; type: functional; conditions: read-out: DIZ
# Aspergillus fumigatus = assay: Antifungal activity against Aspergillus fumigatus RCMB-02568 assessed as diameter of inhibition zone at 5 mg/ml by diffusion technique; type: functional; conditions: read-out: DIZ
# Bacillus cereus [13] = assay: Antibacterial activity against Bacillus cereus RCMB-010067 assessed as diameter of inhibition zone at 5 mg/ml by diffusion technique; type: functional; conditions: read-out: DIZ
# Candida albicans [14] = assay: Antifungal activity against Candida albicans RCMB-05036 assessed as diameter of inhibition zone at 5 mg/ml by diffusion technique; type: functional; conditions: read-out: DIZ
# Enterococcus faecalis [15] = assay: Antibacterial activity against Enterococcus faecalis ATCC 29212 after overnight incubation by CLSI M7-A9 based method; type: functional
# Escherichia coli [16] = assay: Antibacterial activity against Escherichia coli ATCC 25922 after overnight incubation by CLSI M7-A9 based method; type: functional
# Escherichia coli [17] = assay: Antibacterial activity against Escherichia coli JM109 after overnight incubation by CLSI M7-A9 based method; type: functional
# Staphylococcus aureus [18] = assay: Antibacterial activity against Staphylococcus aureus CIP 6525 after overnight incubation by CLSI M7-A9 based method; type: functional
# Escherichia coli [19] = assay: Antibacterial activity against Escherichia coli ATCC 25922 incubated for 24 hrs by broth dilution method; type: functional
# Proteus vulgaris = assay: Antibacterial activity against Proteus vulgaris ATCC […] incubated for 24 hrs by broth dilution method; type: functional
# Staphylococcus aureus [20] = assay: Antibacterial activity against Staphylococcus aureus ATCC 9144 incubated for 24 hrs by broth dilution method; type: functional
# Bacillus spizizenii = assay: Antibacterial activity against Bacillus subtilis ATCC 6633 incubated for 24 hrs by broth dilution method; type: functional
# Aspergillus niger [21] = assay: Antibacterial activity against Aspergillus niger ATCC 9029 incubated for 24 hrs by broth microdilution method; type: functional
# Candida albicans [22] = assay: Antifungal activity against Candida albicans ATCC 2091 incubated for 24 hrs by broth microdilution method; type: functional
# Aspergillus niger [23] = assay: Antibacterial activity against Aspergillus niger MTCC 8189 by serial dilution method; type: functional
# Aspergillus brasiliensis [24] = assay: Antifungal activity against Aspergillus brasiliensis ATCC 16404 incubated for 24 hrs by microdilution method; type: functional
# Candida albicans [25] = assay: Antifungal activity against Candida albicans ATCC 50193 incubated for 24 hrs by microdilution method; type: functional
# Candida albicans [26] = assay: Antibacterial activity against Candida albicans MTCC 227 by serial dilution method; type: functional
# Pseudomonas fluorescens [27] = assay: Antibacterial activity against Pseudomonas fluorescens NCIM 2173 incubated for 24 hrs; type: functional
# Micrococcus luteus = assay: Antibacterial activity against Micrococcus Luteus ATCC 398 incubated for 24 hrs; type: functional
# Bacillus cereus [28] = assay: Antibacterial activity against Bacillus cereus ATCC 6630 incubated for 24 hrs; type: functional
# [29] = system: Sphingomonas paucimobilis; assay: Antibacterial activity against Flavobacterium devorans ATCC 10829 incubated for 24 hrs; type: functional
# Escherichia coli [30] = assay: Antibacterial activity against Escherichia coli NCIM 2256 incubated for 24 hrs; type: functional
# Staphylococcus aureus [31] = assay: Antibacterial activity against Staphylococcus aureus ATCC 29737 incubated for 24 hrs; type: functional
# Bacillus subtilis [32] = assay: Antibacterial activity against Bacillus subtilis NCIM-2162 incubated for 12 hrs; type: functional
# Escherichia coli [33] = assay: Antibacterial activity against Escherichia coli NCIM-2576 incubated for 8 hrs; type: functional
# Pseudomonas fluorescens [34] = assay: Antibacterial activity against Pseudomonas fluorescence NCIM-2059 incubated for 8 hrs; type: functional
# Staphylococcus aureus [35] = assay: Antibacterial activity against Staphylococcus aureus NCIM-2602 incubated for 12 hrs; type: functional
structure (smiles),measurement,setting,value
Clc1ccc(-n2cc(COc3cccc4cccnc34)nn2)cc1,IC50,Klebsiella pneumoniae,106 µg/mL
same,IC50,Escherichia coli [1],106 µg/mL
same,IC50,Enterococcus faecalis [2],106 µg/mL
same,IC50,Streptococcus pneumoniae,106 µg/mL
same,IC50,Pseudomonas aeruginosa [3],106 µg/mL
same,IC50,Salmonella enterica,106 µg/mL
Cc1ccc(-n2cc(COc3cccc4cccnc34)nn2)cc1,IC50,Klebsiella pneumoniae,113 µg/mL
same,IC50,Escherichia coli [1],113 µg/mL
same,IC50,Enterococcus faecalis [2],113 µg/mL
same,IC50,Streptococcus pneumoniae,113 µg/mL
same,IC50,Pseudomonas aeruginosa [3],113 µg/mL
same,IC50,Salmonella enterica,113 µg/mL
O=C(Cn1cc(COc2ccc(OCc3cn(CC(=O)Nc4ccccc4)nn3)cc2)nn1)Nc1ccccc1,MIC,Pseudomonas aeruginosa [4],0.0928 µM
same,MIC,Bacillus subtilis [5],0.0928 µM
same,MIC,Staphylococcus aureus [6],0.0928 µM
same,MIC,Candida albicans [7],0.0928 µM
same,MIC,Aspergillus brasiliensis [8],0.0928 µM
COC(=O)c1ccc(-n2nc(N)c(C(=O)NCCNC(=O)c3nn(-c4ccc(C(=O)OC)cc4)nc3N)n2)cc1,zone of inhibition at 5000 µg/mL,Staphylococcus aureus [9],20.4 mm
same,IC50,HepG2,11.6 µg/mL
same,zone of inhibition at 5000 µg/mL,Escherichia coli [10],20.4 mm
same,zone of inhibition at 5000 µg/mL,Pseudomonas aeruginosa [11],20.4 mm
same,zone of inhibition at 5000 µg/mL,[12],20.4 mm
same,zone of inhibition at 5000 µg/mL,Geotrichum candidum,20.4 mm
same,zone of inhibition at 5000 µg/mL,Aspergillus fumigatus,20.4 mm
same,zone of inhibition at 5000 µg/mL,Bacillus cereus [13],20.4 mm
same,zone of inhibition at 5000 µg/mL,Candida albicans [14],20.4 mm
C[C@H](c1ccccc1)N(CC(N)=O)C(=O)CN(C(=O)CN(Cc1cn(CCN)nn1)C(=O)CN(C(=O)CN(C(=O)CN(Cc1cn(CCN)nn1)C(=O)CN(C(=O)CN(C(=O)CN(Cc1cn(CCN)nn1)C(=O)CN(C(=O)CN(C(=O)CNCc1cn(CCN)nn1)[C@H](C)c1ccccc1)[C@H](C)c1ccccc1)[C@H](C)c1ccccc1)[C@H](C)c1ccccc1)[C@H](C)c1ccccc1)[C@H](C)c1ccccc1)[C@H](C)c1ccccc1,MIC,Enterococcus faecalis [15],> 1.6 µg/mL
same,MIC,Escherichia coli [16],> 1.6 µg/mL
same,MIC,Escherichia coli [17],> 1.6 µg/mL
same,MIC,Staphylococcus aureus [18],> 1.6 µg/mL
Fc1ccc(-n2cc(COc3cccc4cccnc34)nn2)cc1,IC50,Klebsiella pneumoniae,106 µg/mL
same,IC50,Escherichia coli [1],106 µg/mL
same,IC50,Enterococcus faecalis [2],106 µg/mL
same,IC50,Streptococcus pneumoniae,106 µg/mL
same,IC50,Pseudomonas aeruginosa [3],106 µg/mL
same,IC50,Salmonella enterica,106 µg/mL
CC[C@]1(O)C[C@@H]2CN(CCc3c([nH]c4ccccc34)[C@@](C(=O)OC)(c3cc4c(cc3OC)N(C)[C@H]3[C@@](O)(C(=O)OC)[C@H](OC(C)=O)[C@]5(CC)C=CCN6CC[C@]43[C@@H]65)C2)C1 [VINBLASTINE],IC50,HepG2,4.6 µg/mL
O=C(/C=C1\C(=O)N(Cc2cn(Cc3ccccc3)nn2)c2ccc(Br)cc21)c1cc(Cl)cc(Cl)c1OCc1cn(Cc2ccccc2)nn1,MIC,Escherichia coli [19],1.56 µg/mL
same,MIC,Proteus vulgaris,1.56 µg/mL
same,MIC,Staphylococcus aureus [20],1.56 µg/mL
same,MIC,Bacillus spizizenii,1.56 µg/mL
OC(Cn1cncn1)(Cn1cncn1)c1ccc(F)cc1F [FLUCONAZOLE],MIC,Aspergillus niger [21],8 µg/mL
same,MIC,Candida albicans [22],8 µg/mL
same,MIC,Aspergillus niger [23],5.1 µM
same,MIC,Aspergillus brasiliensis [24],4 µg/mL
same,MIC,Candida albicans [25],1 µg/mL
same,MIC,Candida albicans [26],5.1 µM
same,MIC,Candida albicans [7],0.0408 µM
same,MIC,Aspergillus brasiliensis [8],0.0716 µM
O=C(N[C@H](CO)[C@H](O)c1ccc([N+](=O)[O-])cc1)C(Cl)Cl [CHLORAMPHENICOL],MIC,Pseudomonas fluorescens [27],2 µg/mL
same,MIC,Micrococcus luteus,2 µg/mL
same,MIC,Escherichia coli [19],1.56 µg/mL
same,MIC,Proteus vulgaris,1.56 µg/mL
same,MIC,Bacillus cereus [28],2 µg/mL
same,MIC,Staphylococcus aureus [20],1.56 µg/mL
same,MIC,[29],2 µg/mL
same,MIC,Escherichia coli [30],2 µg/mL
same,MIC,Bacillus spizizenii,1.56 µg/mL
same,MIC,Staphylococcus aureus [31],2 µg/mL
COc1ccc(NC(=O)Cn2cc(COc3ccc(OCc4cn(CC(=O)Nc5ccc(OC)cc5)nn4)cc3)nn2)cc1,MIC,Pseudomonas aeruginosa [4],0.167 µM
same,MIC,Bacillus subtilis [5],0.167 µM
same,MIC,Staphylococcus aureus [6],0.167 µM
same,MIC,Candida albicans [7],0.167 µM
same,MIC,Aspergillus brasiliensis [8],0.167 µM
Fc1ccc(-c2cnnn2Cc2csc(-c3ccc(Cl)cc3)n2)cc1,MIC90,Bacillus subtilis [32],4.5 µg/mL
same,MIC90,Escherichia coli [33],4.5 µg/mL
same,MIC90,Pseudomonas fluorescens [34],4.5 µg/mL
same,MIC90,Staphylococcus aureus [35],4.5 µg/mL
O=[N+]([O-])c1ccc(-n2cc(COc3cccc4cccnc34)nn2)cc1,IC50,Klebsiella pneumoniae,106 µg/mL
same,IC50,Escherichia coli [1],106 µg/mL
same,IC50,Enterococcus faecalis [2],106 µg/mL
same,IC50,Streptococcus pneumoniae,106 µg/mL
same,IC50,Pseudomonas aeruginosa [3],106 µg/mL
same,IC50,Salmonella enterica,106 µg/mL
